Source: patent publication US20180314077A1, “DRUG SUSTAINED-RELEASING MEDICAL CONTACT LENS” (NOF CORPORATION, priority 2015, published 2018)
Counter-ions that a name gives are not always drawn.

Conditions: not given
Description: The solubility of the drug (Q) to be used in the drug sustained-releasing medical contact lens of the present invention in water may be calculated by using the following equation.

Compared with `O=C(O)C(=O)Nc1cccc(-c2nnn[nH]2)c1` [acitazanolast hydrate], `Nc1nc2c(ncn2COCCO)c(=O)[nH]1` [acyclovir] is lower in Solubility in water: 0.55% for the first, 0.16% for the second.

Compared with `CCNC(=O)CCC/C=C\C[C@@H]1[C@@H](/C=C/[C@@H](O)CCc2ccccc2)[C@H](O)C[C@@H]1O` [bimatoprost], `CCN[C@H]1CN(CCCOC)S(=O)(=O)c2sc(S(N)(=O)=O)cc21` [brinzolamide] is lower in Solubility in water: 0.55% for the first, 0.055% for the second.

Compared with `CCCC(=O)N1CCCN(c2nc(N)c3cc(OC)c(OC)cc3n2)CC1` [bunazosin hydrochloride], `CO/N=C(\C(=O)N[C@@H]1C(=O)N2C(C(=O)O)=C(CSc3nnnn3C)CS[C@H]12)c1csc(N)n1` [cefmenoxime] is lower in Solubility in water: 0.55% for the first, 0.055% for the second.

Compared with `C[C@@H]1C[C@H]2[C@@H]3CCC4=CC(=O)C=C[C@]4(C)[C@@]3(F)[C@@H](O)C[C@]2(C)[C@@]1(O)C(=O)COC(=O)c1cccc(S(=O)(=O)[O-])c1.[Na+]` [dexamethasone sodium sulfobenzoate], `C[C@@H]1C[C@H]2[C@@H]3CCC4=CC(=O)C=C[C@]4(C)[C@@]3(F)[C@@H](O)C[C@]2(C)[C@@]1(O)C(=O)CO` [dexamethasone] is lower in Solubility in water: 0.55% for the first, 0.01% for the second.

Compared with `O=C(O)Cc1ccccc1Nc1c(Cl)cccc1Cl` [diclofenac sodium], `CC(=O)[C@@]1(O)CC[C@H]2[C@@H]3C[C@H](C)C4=CC(=O)C=C[C@]4(C)[C@@]3(F)[C@@H](O)C[C@@]21C` [fluorometholone] is lower in Solubility in water: 0.24% for the first, 0.003% for the second.

First: COc1c(N2CCNC(C)C2)c(F)cc2c(=O)c(C(=O)O)cn(C3CC3)c12 (centres unmarked) [gatifloxacin]
Second: CC(=O)OCC(=O)[C@@]1(O)CC[C@H]2[C@@H]3CCC4=CC(=O)CC[C@]4(C)[C@H]3[C@@H](O)C[C@@]21C [hydrocortisone acetate]
The Solubility in water of the first is higher: 0.55% for the first, 0.0014% for the second.

Going from `COc1ccc2c(c1)c(CC(=O)O)c(C)n2C(=O)c1ccc(Cl)cc1` [indomethacin] to `CCCCCCCC(=O)CC[C@@H]1[C@@H](C/C=C\CCCC(=O)OC(C)C)[C@@H](O)C[C@H]1O` [isopropyl unoprostone], the Solubility in water rises from 0.00009% to 0.01%.

Compared with `CN1CCC(=C2c3ccccc3CC(=O)c3sccc32)CC1` [ketotifen fumarate], `CC(C)OC(=O)CCC/C=C\C[C@@H]1[C@@H](CC[C@@H](O)CCc2ccccc2)[C@H](O)C[C@@H]1O` [latanoprost] is lower in Solubility in water: 0.55% for the first, 0.01% for the second.

Going from `C[C@@H]1CN([C@H]2CC[C@](C#N)(c3ccc(F)cc3)CC2)CC[C@]1(C(=O)O)c1ccccc1` [levocabastine hydrochloride] to `CCn1cc(C(=O)O)c(=O)c2cc(F)c(N3CCNC(C)C3)c(F)c21` (centres unmarked) [lomefloxacin hydrochloride], the Solubility in water rises from 0.01% to 0.55%.

`NC(=O)Cc1cccc(C(=O)c2ccccc2)c1N` [nepafenac] and `CCn1cc(C(=O)O)c(=O)c2cc(F)c(N3CCNCC3)cc21` [norfloxacin] are the same in Solubility in water: 0.01% for the first, 0.01% for the second.

Compared with `CN(C)CC/C=C1/c2ccccc2COc2ccc(CC(=O)O)cc21` [olopatadine hydrochloride], `O=C(O)c1cc(O)c2c3nc4ccccc4oc-3cc(=O)c2n1` [pirenoxine] is lower in Solubility in water: 2.15% for the first, 0.01% for the second.

`CC(C(=O)O)c1ccc2c(c1)Cc1cccnc1O2` (centres unmarked) [pranoprofen] and `O=C(NC(Cc1cc(=O)[nH]c2ccccc12)C(=O)O)c1ccc(Cl)cc1` (centres unmarked) [rebamipide] are the same in Solubility in water: 0.01% for the first, 0.01% for the second.

`CC(C)OC(=O)CCC/C=C\C[C@@H]1[C@@H](/C=C/C(F)(F)COc2ccccc2)[C@H](O)C[C@@H]1O` [tafluprost] and `NC1CCN(c2nc3c(cc2F)c(=O)c(C(=O)O)cn3-c2ccc(F)cc2F)C1` (centres unmarked) [tosufloxacin tosilate hydrate] are the same in Solubility in water: 0.01% for the first, 0.01% for the second.

`COc1ccc(/C=C/C(=O)Nc2ccccc2C(=O)O)cc1OC` [tranilast] and `CC(C)OC(=O)CCC/C=C\C[C@@H]1[C@@H](/C=C/[C@@H](O)COc2cccc(C(F)(F)F)c2)[C@H](O)C[C@@H]1O` [travoprost] are the same in Solubility in water: 0.01% for the first, 0.01% for the second.

cyanocobalamin and sodium azulene sulfonate hydrate are the same in Solubility in water: 2.15% for the first, 2.15% for the second.

In the case of sodium hyaluronate, the Solubility in water is reported as 2.15%.

Same assay, conditions: water at 25° C.; 0.01 g of drug / mass of water needed for dissolving x100

`CC(C)c1ccc2oc3nc(N)c(C(=O)O)cc3c(=O)c2c1` [amlexanox] gave a Solubility in water of 0.01%.
